Results from PMC7961048, “Hierarchized phosphotarget binding by the seven human 14-3-3 isoforms” (Nature Communications, 2021).
Starred links: 1 amine or outer side, 2 acyl side, 3 side chain; linkers in the order of their positions; H or OH if unused. Non-standard residues stand in square brackets, D forms with d. Residues, ends and D or L forms follow the SMILES beside them. *: point of attachment. X1 = O=C(CCCC[C@@H]1SC[C@@H]2NC(=O)N[C@@H]21)NCCCOCCOCCOCCCN*; pT = C[C@@H](OP(=O)(O)O)[C@H](N)C(=O)O; Suc = O=C(CCC(=O)[*:2])[*:1]

What was measured:
Type in all cases: binding
[1] = biological target: seven human 14-3-3 isoforms; experiment: Affinities averaged or compared across the 14-3-3 family (ΔΔGav, KD ratios, affinity maps)
Excerpt: Former studies have measured the binding of the seven human 14-3-3 isoforms to unrelated phospho-motifs derived from Cystic Fibrosis Transmembrane Conductance Regulator (CFTR), Leucine-Rich Repeat Kinase 2 (LRRK2), Potassium channel subfamily K members (TASK1/3), C-Raf, the p65 subunit of the NF-κB transcription factor, and from Ubiquitin carboxyl-terminal hydrolase 8 (USP8), representing a wide variety of different 14-3-3-binding motifs, including C-terminal, internal, monovalent, or divalent motifs[40],[44]–[48].
(gray background). The color scale is either based on affinity values or on KD ratios. √ denotes affinities weaker than the limit of quantitation of the experimental assays. b Same map as in a, normalized to the strongest 14-3-3-binding motif. […] Source data are provided as a Source Data file.
All binding data and the obtained fits are provided as Supplementary Data File 1.

[2] = biological target: T1, 14-3-3ζ (Homo sapiens, UniProt P63104); experiment: biochemical
T1 construct: Plasmids containing the cDNAs of the full-length 14-3-3 isoforms ε, γ, and ζ were received; made in house; host or cells: E. coli BL21(DE3)
T1 sequence (P63104 1-245): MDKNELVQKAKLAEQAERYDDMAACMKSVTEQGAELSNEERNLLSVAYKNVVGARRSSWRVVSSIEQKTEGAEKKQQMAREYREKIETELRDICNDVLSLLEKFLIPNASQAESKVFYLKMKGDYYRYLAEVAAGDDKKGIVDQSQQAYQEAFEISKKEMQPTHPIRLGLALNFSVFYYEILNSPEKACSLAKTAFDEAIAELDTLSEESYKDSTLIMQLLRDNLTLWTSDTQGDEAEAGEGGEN

[3] = biological target: T2, 14-3-3ε (Homo sapiens, UniProt P62258); experiment: biochemical
T2 construct: Plasmids containing the cDNAs of the full-length 14-3-3 isoforms ε, γ, and ζ were received; made in house; host or cells: E. coli BL21(DE3)
T2 sequence (P62258 1-255): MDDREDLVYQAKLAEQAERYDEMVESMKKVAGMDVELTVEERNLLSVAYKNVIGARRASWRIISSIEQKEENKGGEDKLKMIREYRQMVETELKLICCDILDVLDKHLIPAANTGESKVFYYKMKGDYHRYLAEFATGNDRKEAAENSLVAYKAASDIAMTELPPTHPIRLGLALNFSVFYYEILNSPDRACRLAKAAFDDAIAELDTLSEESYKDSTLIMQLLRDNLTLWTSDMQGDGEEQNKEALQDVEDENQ

SMILES: CC(C)[C@H](NC(=O)[C@H](C)NC(=O)[C@@H](NC(=O)[C@H](CCC(=O)O)NC(=O)[C@H](CCCNC(=N)N)NC(=O)[C@H](CCCNC(=N)N)NC(=O)[C@@H](NC(=O)[C@@H]1CCCN1C(=O)[C@H](CCCCN)NC(=O)[C@H](CO)NC(=O)CCC(=O)NCCCOCCOCCOCCCNC(=O)CCCC[C@@H]1SC[C@@H]2NC(=O)N[C@@H]21)[C@@H](C)O)[C@@H](C)OP(=O)(O)O)C(=O)O [pHPV35E6E-1A] ({X1-Suc}-SKPTRRE[pT]AV-OH)
- KD ratios, compared to LRRK2 pS910/pS935, 14-3-3β ([1]; Figure 4 panel b, 14-3-3β): 957.35
- KD ratios, compared to LRRK2 pS910/pS935, 14-3-3γ ([1]; Figure 4 panel b, 14-3-3γ): 2909.38
- KD ratios, compared to LRRK2 pS910/pS935, 14-3-3ε ([1]; Figure 4 panel b, 14-3-3ε): 2572.58
- KD ratios, compared to LRRK2 pS910/pS935, 14-3-3ζ ([1]; Figure 4 panel b, 14-3-3ζ): 3666.67
- KD ratios, compared to LRRK2 pS910/pS935, 14-3-3η ([1]; Figure 4 panel b, 14-3-3η): 2583.33
- KD ratios, compared to LRRK2 pS910/pS935, 14-3-3σ ([1]; Figure 4 panel b, 14-3-3σ): 727.72
- KD ratios, compared to LRRK2 pS910/pS935, 14-3-3τ ([1]; Figure 4 panel b, 14-3-3τ): 2263.16
- KD ratios, compared to LRRK2 pS910/pS935, average ([1]; Figure 4 panel b, average over the isoforms): 2200.00
- KD ratios, compared to 14-3-3γ, 14-3-3β ([1]; Figure 4 panel c, 14-3-3β): 2.17
- KD ratios, compared to 14-3-3γ, 14-3-3γ ([1]; Figure 4 panel c, 14-3-3γ): 1.00
- KD ratios, compared to 14-3-3γ, 14-3-3ε ([1]; Figure 4 panel c, 14-3-3ε): 3.43
- KD ratios, compared to 14-3-3γ, 14-3-3ζ ([1]; Figure 4 panel c, 14-3-3ζ): 1.89
- KD ratios, compared to 14-3-3γ, 14-3-3η ([1]; Figure 4 panel c, 14-3-3η): 1.33
- KD ratios, compared to 14-3-3γ, 14-3-3σ ([1]; Figure 4 panel c, 14-3-3σ): 4.74
- KD ratios, compared to 14-3-3γ, 14-3-3τ ([1]; Figure 4 panel c, 14-3-3τ): 2.31
- Kd [2]: 17.6 µM
- Kd [3]: 31.9 µM
